In BindingDB's records for doi:10.1016/j.bioorg.2017.01.003 (Comsats Institute of Information Technology, 2017):

What was measured:
[1] = molecular target: 5'-nucleotidase (Homo sapiens, UniProt P21589); experiment: Ecto-5'-Nucleotidase Inhibition Assay; conditions: pH 7.4; 37 °C
Method: (§1) Then the mixture was placed in water bath at 99 °C for 20 min to stop the enzymatic reaction by thermal denaturation of protein. The aliquots of 50 μL of this reaction mixture were transferred into CE mini vials and injected hydrodynamically into the capillary under pressure of 0.5 psi for 5 s, followed by the application of 15 kV voltage for separation of substrate and product peaks.

[2] = molecular target: T1, 5'-nucleotidase (Rattus norvegicus, UniProt P21588); experiment: Ecto-5'-Nucleotidase Inhibition Assay; conditions: pH 7.4; 37 °C
T1 sequence (P21588 whole entry): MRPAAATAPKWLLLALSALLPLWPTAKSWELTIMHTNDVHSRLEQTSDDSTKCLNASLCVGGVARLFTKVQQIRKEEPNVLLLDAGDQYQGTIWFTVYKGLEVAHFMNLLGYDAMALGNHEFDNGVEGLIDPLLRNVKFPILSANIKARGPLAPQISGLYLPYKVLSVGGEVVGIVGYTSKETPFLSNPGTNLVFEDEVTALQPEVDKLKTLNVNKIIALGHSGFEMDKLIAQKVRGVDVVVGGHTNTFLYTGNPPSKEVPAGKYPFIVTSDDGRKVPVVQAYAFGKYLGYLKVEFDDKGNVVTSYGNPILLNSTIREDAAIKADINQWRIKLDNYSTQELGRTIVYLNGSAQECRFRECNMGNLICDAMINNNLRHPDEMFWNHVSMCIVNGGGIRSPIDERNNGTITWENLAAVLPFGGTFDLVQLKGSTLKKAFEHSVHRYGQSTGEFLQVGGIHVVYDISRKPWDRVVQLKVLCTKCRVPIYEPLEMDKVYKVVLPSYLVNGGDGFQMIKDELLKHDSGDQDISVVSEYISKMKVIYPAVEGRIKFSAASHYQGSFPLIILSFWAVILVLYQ
Method: as §1

[3] = molecular target: Intestinal-type alkaline phosphatase (Bos taurus, UniProt P19111); experiment: Alkaline Phosphatase Assay; conditions: pH 9.8; 37 °C
Chain of Intestinal-type alkaline phosphatase (P19111 whole entry): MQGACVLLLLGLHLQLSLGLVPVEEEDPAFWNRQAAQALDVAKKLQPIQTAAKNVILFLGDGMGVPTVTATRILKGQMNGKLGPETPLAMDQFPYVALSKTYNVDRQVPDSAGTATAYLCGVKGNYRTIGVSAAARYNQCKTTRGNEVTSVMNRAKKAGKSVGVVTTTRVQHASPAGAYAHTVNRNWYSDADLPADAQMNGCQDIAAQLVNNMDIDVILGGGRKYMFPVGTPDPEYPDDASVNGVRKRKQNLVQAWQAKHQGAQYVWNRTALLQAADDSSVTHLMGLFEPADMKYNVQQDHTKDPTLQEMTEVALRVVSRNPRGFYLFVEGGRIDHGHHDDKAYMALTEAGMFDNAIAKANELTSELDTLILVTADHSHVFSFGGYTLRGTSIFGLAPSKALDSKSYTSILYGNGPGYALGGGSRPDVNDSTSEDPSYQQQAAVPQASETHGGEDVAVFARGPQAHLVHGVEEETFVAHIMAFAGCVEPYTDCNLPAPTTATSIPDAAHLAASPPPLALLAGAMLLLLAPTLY
Method: Alkaline phosphatase assay was optimized and performed in the same way as previously reported method with slight modifications [Sergienko et al., Nat. Protoc., 5:1431-1439]. All compounds were analyzed at a final concentration of 200 μM (1% DMSO) by using assay buffer with composition of […] diethanolamine (DEA) (pH 9.8), 0.05 mM ZnCl2 and 2.5 mM MgCl2. The total reaction volume was kept 50 μL containing 10 μL of tested compound, 20 μL of b-TNAP (1:800 (0.8 units/mL) diluted enzyme in assay buffer) or c-IAP (1:800 (1 units/mL) diluted enzyme in assay buffer). After incubation for 3-5 min at 37 °C., the luminescence was measured as a pre-read using microplate reader (BioTek FLx800, Instruments, Inc. USA). Then, 20 μL of substrate (CDPstar®) (final concentration of 110 μM) was added to the reaction mixture to initiate the enzymatic reaction. The change in the luminescence was recorded after 15 min. at 37 °C. The activity of each compound was measured in comparison with control (without any inhibitor). Levamisole (2 mM per well) and L-phenylalanine (4 mM per well) were used as standards (positive control) against b-TNAP) and c-IAP), respectively.

[4] = Alkaline Phosphatase Assay; conditions: pH 9.8; 37 °C

Chain of 5'-nucleotidase (Homo sapiens, UniProt P21589) (P21589 whole entry): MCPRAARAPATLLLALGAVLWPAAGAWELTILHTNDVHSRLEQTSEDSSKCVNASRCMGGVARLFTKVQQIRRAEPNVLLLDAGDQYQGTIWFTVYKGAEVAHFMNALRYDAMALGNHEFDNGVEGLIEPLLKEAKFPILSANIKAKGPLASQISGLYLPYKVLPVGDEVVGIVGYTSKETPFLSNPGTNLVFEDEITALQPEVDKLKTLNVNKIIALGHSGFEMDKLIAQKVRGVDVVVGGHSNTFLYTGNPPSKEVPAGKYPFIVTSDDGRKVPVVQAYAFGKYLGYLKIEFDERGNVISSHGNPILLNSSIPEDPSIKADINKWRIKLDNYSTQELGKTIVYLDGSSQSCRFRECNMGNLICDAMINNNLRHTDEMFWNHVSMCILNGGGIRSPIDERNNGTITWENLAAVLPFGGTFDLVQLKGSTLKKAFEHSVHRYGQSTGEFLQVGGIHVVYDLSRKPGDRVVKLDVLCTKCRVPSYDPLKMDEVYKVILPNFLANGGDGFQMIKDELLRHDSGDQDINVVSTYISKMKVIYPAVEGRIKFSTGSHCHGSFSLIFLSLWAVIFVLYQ

Compound	IC50 [1] [µM]	IC50 [2] [µM]	IC50 [3] [nM]	IC50 [4] [nM]
COc1cc(/C=C/C(=O)/C(=N/Nc2ccc(S(N)(=O)=O)cc2)N2CCOCC2)cc(OC)c1OC [(Z)-4-(2-((E)-1-morpholino-2-oxo-4-(3,4,5-Trimethoxyphenyl)but-3-enylidene) hydrazinyl)benzenesulfonamide (4f)]	1.75	0.68	2570	
NS(=O)(=O)c1ccc(N/N=C(/C(=O)/C=C/c2cccc([N+](=O)[O-])c2)N2CCOCC2)cc1 [(Z)-4-(2-((E)-1-morpholino-4-(3-Nitrophenyl)-2-oxobut-3-enylidene)hydrazinyl) benzenesulfonamide (4j)]			740	
NS(=O)(=O)c1ccc(N/N=C(/C(=O)/C=C/c2ccc(Cl)cc2Cl)N2CCOCC2)cc1 [(Z)-4-(2-((E)-4-(2,4-dichlorophenyl)-1-morpholino-2-oxobut-3-enylidene)hydrazinyl) benzenesulfonamide (4b)]	3.32	2.85	680	
NS(=O)(=O)c1ccc(N/N=C(/C(=O)/C=C/c2ccccc2Br)N2CCOCC2)cc1 [(Z)-4-(2-((E)-4-(2-bromophenyl)-1-morpholino-2-oxobut-3-enylidene)hydrazinyl) benzenesulfonamide (4i)]	2.92	22.4	1210	
NS(=O)(=O)c1ccc(N/N=C(/C(=O)/C=C/c2ccccc2Cl)N2CCOCC2)cc1 [(Z)-4-(2-((E)-4-(2-chlorophenyl)-1-morpholino-2-oxobut-3-enylidene)hydrazinyl) benzenesulfonamide (4a)]	11.6	6.43	120	
NS(=O)(=O)c1ccc(N/N=C(/C(=O)/C=C/c2ccccc2F)N2CCOCC2)cc1 [(Z)-4-(2-((E)-4-(2-fluorophenyl)-1-morpholino-2-oxobut-3-enylidene)hydrazinyl) benzene-sulfonamide (4g)]			440	
COc1ccc(/C=C/C(=O)/C(=N/Nc2ccc(S(N)(=O)=O)cc2)N2CCOCC2)cc1OC [(Z)-4-(2-((E)-4-(3,4-dimethoxyphenyl)-1-morpholino-2-oxobut-3-enylidene) hydrazinyl) benzenesulfonamide (4e)]		7.41	350	
NS(=O)(=O)c1ccc(N/N=C(/C(=O)/C=C/c2cccc(F)c2)N2CCOCC2)cc1 [(Z)-4-(2-((E)-4-(3-fluorophenyl)-1-morpholino-2-oxobut-3-enylidene)hydrazinyl) benzenesulfonamide (4h)]			730	
COc1cccc(/C=C/C(=O)/C(=N/Nc2ccc(S(N)(=O)=O)cc2)N2CCOCC2)c1 [(Z)-4-(2-((E)-4-(3-methoxyphenyl)-1-morpholino-2-oxobut-3-enylidene)hydrazinyl) benzenesulfonamide (4c)]			990	
COc1ccc(/C=C/C(=O)/C(=N/Nc2ccc(S(N)(=O)=O)cc2)N2CCOCC2)cc1 [(Z)-4-(2-((E)-4-(4-methoxyphenyl)-1-morpholino-2-oxobut-3-enylidene)hydrazinyl) benzenesulfonamide (4d)]			1710	330
